Test: Electrical conductivity of solutions of the organic salts in non-aqueous solvents
Assay type: physicochemical
Experimental: A variety of metal carboxylates were prepared in heptane by reacting versatic acid and 2-ethyl hexanoic acid directly with the metal of choice or with a metal base such as the hydride or hydroxide. Lithium, sodium, potassium, rubidium, calcium and gadolinium systems were synthesised.
A 1 molar solution of potassium bis(2-ethylhexyl) phosphate in Brij 30 was then prepared by dissolving 18.02 grams of the salt in 47.5 grams (50 ml) of the solubilising agent.
A 1 molar solution of AOT (Aldrich Chemicals) in Brij 30 was prepared by dissolving 22.23 grams of AOT in 47.5 grams (50 ml) of Brij 30.
The final AOT/neopentyl glycol/Brij 30 solution of FIG. 10 (i.e. 1 molar AOT and 2 molar neopentyl glycol in Brij 30) was then diluted with successive amounts of mineral spirits and the conductivity measured at each addition.

[1] = 1 molar salt and 2 molar neopentyl glycol in Brij 30, diluted: 20% solution, 80% mineral spirits by volume

| Structure (SMILES) | conductivity (1 molar in Brij 30 with 2.0 molar neopentyl glycol, 25° C.) | conductivity [1] | conductivity (1 molar solution in Brij 30) |
| --- | --- | --- | --- |
| CCCCC(CC)COC(=O)CC(C(=O)OCC(CC)CCCC)S(=O)(=O)O.[Na] (centres unmarked) [AOT, sodium salt of bis(2-ethylhexyl) sulfosuccinate] | 33.5 ìS/cm | 1.5 ìS/cm | 15.7 ìS/cm |
| CCCCC(CC)COP(=O)([O-])OCC(CC)CCCC.[K+] (centres unmarked) [potassium bis(2-ethylhexyl) phosphate] |  | 3.2 ìS/cm | 45.5 ìS/cm |
